Laboratory results published in publication PMC11304990, “Identification of mitochondrial ATP synthase as the cellular target of Ru-polypyridyl-β-carboline complexes by affinity-based protein profiling” (National Science Review, 2024).

What was measured:
[1] = system: cervical carcinoma (HeLa); experiment: MTT antiproliferative assay, HeLa; assay type: cell-based, human; conditions: 72 h
Source text: (§1) Ru3–Ru9 also show a certain selectivity for cancer cells over normal cells, and Ru2, Ru3, Ru5 and Ru9 show higher selectivity index (SI) values than the other complexes.
(§2) PA-BPP was then used to confirm the molecular targets of Ru5 by modifying it with a ‘minimalist’ biorthogonal handle-containing photo-cross-linker. Through our structure–activity relationship analysis and comparison with other ruthenium complexes utilizing phen as the auxiliary ligands with similar coordination structures (using cisplatin as a control), we propose that the β-carboline ligands play an important role in antiproliferative activity. To maintain the binding characteristics of the β-carboline moiety with the targeted biomolecules, we linked the photo-cross-linker to one of the auxiliary ligands of Ru5.

A549 cells [2] = experiment: Anticancer activity in wild type vs ATPase siRNA knockdown cells; assay type: cell-based, human; conditions: compared to wild-type cells
Procedure: (§3) Figure 1. Validation of ATP5F1 as the molecular target of Ru5. (A) Proteins pulled down by streptavidin from A549 cells treated with Ru5a followed by PAL. The cells were treated with Ru5a (50 μM) for 12 h and irradiated with UV light for 20 min. (B) The top five peptides enriched by Ru5a-mediated PAL were identified with the assistance of SILAC-based chemoproteomic studies. H1F0: H1 histone family member 0; HIST4H4: histone cluster 4 H4; HIST3H2BB: histone cluster 3 H2B family member b; ATP5F1E: ATP synthase F1 subunit epsilon; HIST1H2AJ: histone cluster 1 H2A family member J. (C) Pull-down western blotting analysis of ATPase in A549 cells treated with Ru5a. (D) Cellular Ru content in cells treated with Ru5/Ru5a (20 μM, 12 h) measured by ICP-MS. (E) Impact of Ru5/Ru5a (10 μM) on the thermal stability of ATP5F1 measured by CETSA. (F) Impact on the anticancer activities of Ru5/Ru5a against wild type and ATPase knocking down (by siRNA) A549 cells. The relative cellular viability was calculated using the cells without drug treatment in each group as the control group. (G) Inhibition of Ru5/Ru5a on the enzymatic activity of ATPase. (-)-blebbistatin was used as the positive control. (H) Molecular docking of Ru5 with ATPase (PDB: 3ZIA). The red dashes indicate the hydrogen bonds formed between Ru5 and the amino acid residues (SER38 and GLN39). […]

A549 cells [3] = experiment: Wound healing and transwell migration assays; assay type: cell-based, human; conditions: 5 μM
Procedure: Figure 4. Ru5 induces mitophagy and ferroptosis and inhibits EMT in vitro. (A) TEM images of A549 cells treated with vehicle (1% DMSO) or Ru5 (10 μM, 12 h). Red rectangles represent the region enlarged. Scale bar: 5 μm and 500 nm (enlarged). (B) The morphological examination of mitochondria in A549 cells treated with Ru5 (10 μM) for the indicated time intervals. MTG: λex = 514 nm; λem = 540 ± 20 nm. LTDR: λex = 633 nm; λem = 700 ± 20 nm. Scale bar: 20 μm. (C) Western blotting analysis showing the impact of Ru5 (24 h) on the expression of proteins related to mitochondrial dysfunction and ferroptosis. (D and E) The impact of different inhibitors on antiproliferative activity of Ru5 (24 h). (F) RT-qPCR analysis of EMT-related genes in A549 cells after Ru5 (10 μM, 12 h) treatment. (G) The impact of Ru5 (5 μM) on the migration of A549 cells was measured by a wound healing assay. Scale bar: 100 μm. (H) Quantitative analysis of the impact of Ru5 on wound healing. (I) Selective images of the impact of Ru5 (5 μM, 48 h) on the migration of A549 cells detected by transwell assay. Scale bar: 100 μm. […] Firstly, real-time quantitative polymerase chain reaction (RT-qPCR) experiments (Fig. 4F) confirm that Ru5 can down-regulate genes including CDH1 (cadherin 1), FN1 (fibronectin 1) and MMP2 (matrix metallopeptidase 2).

mitochondria = experiment: Subcellular Ru content by ICP-MS; assay type: cell-based; conditions: 20 μM, 12 h
Procedure: as §3

[4] = system: cisplatin-resistant A549R; experiment: MTT antiproliferative assay, A549R; assay type: cell-based, human; conditions: 72 h
Source text: as §1, §2

ATP5F1 = experiment: Cellular thermal shift assay (CETSA); assay type: cell-based; conditions: 10 μM
Procedure: as §3

Structure (SMILES): F[P-](F)(F)(F)(F)F.F[P-](F)(F)(F)(F)F.[Ru+2].c1ccc2c(c1)[nH]c1c(-c3ncc[nH]3)nccc12.c1cnc2c(c1)ccc1cccnc12.c1cnc2c(c1)ccc1cccnc12 [Ru5]
- IC50 [1]: 3.1 ± 0.7 µM
- Effect of siRNA-mediated knockdown of ATPase on anticancer effects (A549 cells [2]): alleviates
- Migration rates of A549 cells (A549 cells [3]): markedly decrease
- Subcellular location (cellular Ru content) (mitochondria): mainly located in mitochondria
- IC50 [4]: 3.3 ± 0.7 µM
- Thermal stability of ATP5F1 (ATP5F1): increased
